# Results published in PMC7806714, “Statins for the prevention of proliferative vitreoretinopathy: cellular responses in cultured cells and clinical statin concentrations in the vitreous” (Scientific Reports, 2021).
# Legend:
# [1] = UPLC-MS/MS statin and metabolite concentrations in vitreous of vitrectomy patients on oral statins; type: in vivo, human; conditions: for Concentration in vitreous sample: PDR
# Experimental: The study was conducted according to the tenets of the Declaration of Helsinki, and was approved by the Institutional Review Board and Ethical committee of Helsinki University Central Hospital. Twenty patients were enrolled; fifteen with per oral statin treatment and five controls. Signed informed consent was obtained from each participant prior to the vitreous sampling. Confidentiality of the patient records was maintained when the clinical data were entered into a computer-based standardized data entry for analysis. Sixteen patients were being operated due to PDR; of these, five patients had also Tractional Retinal Detachment (TRD); two patients were operated due to RRD, one due to age-related epiretinal fibrosis (pucker), and one due to a macular hole (Supplementary Table S2). […] All vitrectomies were performed by the recruiting vitreoretinal surgeon (SL). […] The samples were collected by manual aspiration into a syringe via the vitrectomy with the cutting function activated. Sample aliquots were transferred into sterile 1.5 mL microcentrifuge tubes (Freemont, CA, USA) and immediately frozen and stored at − 70 °C until laboratory analysis. […] All reference compounds and internal standards were purchased from Toronto Research Chemicals (Toronto, Canada). Samples (100 µl) were divided into two aliquots and kept at − 80 °C prior to analysis. […] Homogenizer blocks were pre-cooled by placing them at − 20 °C. […] Supernatants (120 µl) were pipetted into analytical vials and the concentrations of the statins were measured with Ultra-high Pressure Liquid Chromatography—tandem Mass Spectrometry (UPLC-MS/MS) technique. The same pre-treatment protocol was used to prepare calibration curves and quality control samples but homogenized and filtered porcine vitreous were used as a matrix instead of human vitreous. A minimum of six calibration curve concentrations was used for quantitation of the compounds. Two parallel calibration curve sets included all eleven analytes and four deuterated internal standards. Three quality control samples in three parallel sets were used to validate the method. The linear range varied from approximately 0.004 to 10 ng/mL depending on the analyte. Limit of quantitation was set to the smallest calibration curve point of each drug. Each sample was analysed twice and the average of these values was designated as the concentration of the sample. […] For rosuvastatin, two metabolites were analysed: rosuvastatin lactone and N-desmethyl rosuvastatin lactone. Rosuvastatin D6 was used as an internal standard. The parent drug, its metabolites and internal standard were analysed from the same sample in each case. Liquid chromatography separation was carried out using a Waters Acquity UPLC instrument (Waters, MA, USA) coupled with Waters HSS T3 C18 (2.1 × 100 mm, 1.8 µm) column at 40 °C. The mobile phase consisted of 0.1% formic acid in ultrapure water (A) and 100% of LC–MS grade acetonitrile (B). […] The flow rate was set to 0.3 mL/min and injection volume 1.5 µl. After every three samples, a solvent blank was run to control for any carry over. Mass spectrometry measurements were carried out using a Waters Xevo Triple Quadruple mass spectrometer (TQ-S) equipped with an ESI source. […] The source parameters were as follows: Capillary voltage 2.8 kV, source temperature 150 °C and desolvation temperature 500 °C. Nitrogen (Aga, Helsinki, Finland) was used as a desolvation gas (800 l/h), a cone gas (150 l/h) and a nebulizer gas (7 bar). Argon (Aga, Helsinki, Finland) was used as a collision gas (0.15 mL/min). The Multiple Reaction Monitoring (MRM) mode was used for quantification. Precursor and fragment ions, as well as other optimized parameters are listed in Supplementary Table S3.
# PVR rabbit model [2] = experiment: Preclinical PVR rabbit model with intravitreal simvastatin (Kawahara et al.); type: in vivo; conditions: Eq. 5; intravitreal dose 0.63 µg, dosing interval 48 h, rabbit CLivt 0.982 mL/h; study data of [16]
# PVR rabbit model [3] = tested on: PVR rabbit model; design: method as in PMID 18599521; conditions: four intravitreal injections of 15 µM at intervals of two days; end point 28 days; ref [16]; cited from earlier work
# [4] = free fraction of drug in plasma; ref summary of product characteristics document; cited from earlier work
# [5] = oral 40 mg/d, patients' vitreous
compound,measurement,setting,value
CCC(C)(C)C(=O)O[C@H]1C[C@@H](C)C=C2C=C[C@H](C)[C@H](CC[C@@H]3C[C@@H](O)CC(=O)O3)[C@H]21 [Simvastatin],Measured Cv Average,[1]; [5],0.048 ng/mL
same,Measured Cv Range (lower),[1]; [5],0.027 ng/mL
same,Measured Cv Range (upper),[1]; [5],0.073 ng/mL
same,Concentration in vitreous sample,"[1]; patient 347, TDR, oral simvastatin 40 mg",0.073 ng/mL
same,Concentration in vitreous sample,"[1]; patient 370, oral simvastatin 40 mg",0.044 ng/mL
same,Concentration in vitreous sample,"[1]; patient A101, TDR, oral simvastatin 40 mg",0.027 ng/mL
same,"therapeutic Css, average in PVR rabbit model",PVR rabbit model [2],13.3 ng/mL
same,effect in preclinical PVR rabbit model,PVR rabbit model [3],Clear beneficial effects
